Data on 17 compounds can be found in US9464063B2, “Benzo [B] [1,4] oxazin derivatives as calcium sensing receptor modulators” (LUPIN ATLANTIS HOLDINGS SA, priority 2011, dated 2016).

In the assay the target is T1, Calcium sensing receptor (hCaSR) (Homo sapiens, UniProt P41180).
T1 construct: expressed in transfected cells
T1 sequence (P41180 20-1078): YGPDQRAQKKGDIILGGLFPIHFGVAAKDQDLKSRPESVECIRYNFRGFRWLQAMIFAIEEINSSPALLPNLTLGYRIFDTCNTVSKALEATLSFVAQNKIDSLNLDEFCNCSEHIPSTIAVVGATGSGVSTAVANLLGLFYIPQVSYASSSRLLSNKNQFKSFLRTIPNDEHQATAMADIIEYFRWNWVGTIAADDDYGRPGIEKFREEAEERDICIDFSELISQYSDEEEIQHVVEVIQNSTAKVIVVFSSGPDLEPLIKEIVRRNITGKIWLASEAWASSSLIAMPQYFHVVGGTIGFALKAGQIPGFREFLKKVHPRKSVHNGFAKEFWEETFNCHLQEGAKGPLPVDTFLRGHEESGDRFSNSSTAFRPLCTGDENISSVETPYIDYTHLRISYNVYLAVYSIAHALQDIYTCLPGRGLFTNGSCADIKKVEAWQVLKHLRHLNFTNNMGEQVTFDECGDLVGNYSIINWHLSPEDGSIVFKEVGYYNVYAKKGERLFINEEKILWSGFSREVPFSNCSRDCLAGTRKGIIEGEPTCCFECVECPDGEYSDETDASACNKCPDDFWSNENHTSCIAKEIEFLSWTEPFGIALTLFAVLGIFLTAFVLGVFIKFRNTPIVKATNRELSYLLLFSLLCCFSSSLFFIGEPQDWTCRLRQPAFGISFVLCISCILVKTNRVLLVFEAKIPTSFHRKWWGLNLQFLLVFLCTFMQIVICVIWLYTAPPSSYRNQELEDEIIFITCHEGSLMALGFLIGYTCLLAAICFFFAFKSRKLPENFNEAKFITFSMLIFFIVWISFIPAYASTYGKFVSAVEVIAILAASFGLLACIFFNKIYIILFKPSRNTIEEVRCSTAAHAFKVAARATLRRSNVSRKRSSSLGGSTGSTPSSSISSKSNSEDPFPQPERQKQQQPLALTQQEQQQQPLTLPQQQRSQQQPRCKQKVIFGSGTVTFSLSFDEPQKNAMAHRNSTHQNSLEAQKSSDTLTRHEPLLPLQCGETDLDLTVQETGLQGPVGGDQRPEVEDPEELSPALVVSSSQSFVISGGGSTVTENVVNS
Nature of the assay: In-vitro assay of calcimimetics through modulation of calcium sensing receptor: increase in intracellular calcium [Ca2+]i, FLIPR. In kind it is cell-based. The following applies: stably transfected HEK293 cells expressing hCaSR; Fluo4NW dye; 0.3 mM CaCl2; 8-point assay; read-out: EC50 Range. Here is the method: In-Vitro Assay Method of Calcimemtics Through Modulation of Calcium Sensing Receptor (CaSR):
The ability of the compounds to modulate Calcium sensing receptor is determined by measuring an increase in intracellular calcium [Ca^2+]i. Stably transfected HEK293 cells expressing hCaSR_pTriEx-3 hygro vector are developed. Cells are grown overnight on a 96-well plate to 80% confluency in Ham's F12 containing 20% FBS at 37° C., 5% CO2. Subsequently, cells are washed extensively with 20 mM HEPES buffer containing 126 mM NaCl, 1 mM MgCl2 and 4 mM KCl to remove serum components that might interfere with the assay. Cells are loaded with calcium sensing Fluo4NW dye in HEPES base buffer containing 0.1% BSA and 1 mg/ml glucose for 30 minutes to measure changes in intracellular calcium. The activities of the compounds are measured in FLIPR using 0.3 mM CaCl2 in 20 mM HEPES base buffer. The effectiveness of the compound to modulate receptor activity is determined by calculating the EC50 responses for that compound in an 8-point assay and plotted using GraphPad Prism 5.

Structures can show the parent of a compound that is named as a salt.

Usually EC50 stands for the concentration giving half of the maximal effect. In the case of `C[C@@H](NCC1CN(c2cccc(C(=O)O)c2)c2ccccc2O1)c1cccc2ccccc12` (stereo partly drawn) [Example 41, 3-(2-((((R)-1-(Naphthalen-1-yl)ethyl)amino)methyl)-2H-benzo[b][1,4]oxazin-4(3H)-yl)benzoic acid hydrochloride], the EC50 was 20 to 50 nM.

For the compound `C[C@@H](NCC1CN(c2ccc(CCC(=O)O)cc2)c2ccccc2O1)c1cccc2ccccc12` (stereo partly drawn) [Example 48, 3-(4-(2-((((R)-1-(naphthalen-1-yl)ethyl)amino)methyl)-2H-benzo [b][1,4]oxazin-4(3H)-yl)phenyl)propanoic acid], the concentration for a half-maximal effect (EC50) is 50 to 200 nM.

With `C[C@@H](NCC1CN(c2cccc(OCC(=O)O)c2)c2ccccc2O1)c1cccc2ccccc12` (stereo partly drawn) [Example 50, 2-(3-(2-((((R)-1-(naphthalen-1-yl)ethyl)amino)methyl)-2H-benzo[b] [1,4]oxazin-4(3H)-yl)phenoxy)acetic acid hydrochloride], the EC50 was in the range of 20 to 50 nM.

Take `COc1cc(C(=O)O)cc(N2CC(CN[C@H](C)c3cccc4ccccc34)Oc3ccccc32)c1` (stereo partly drawn) [Example 54, 3-Methoxy-5-(2-((((R)-1-(naphthalen-1-yl)ethyl)amino)methyl)-2H-benzo [b][1,4]oxazin-4(3H)-yl) benzoic acid hydrochloride]: the 50% effective concentration (EC50) lay in the range of 50 to 200 nM.

Take `C[C@@H](NCC1CN(c2cccc(CC(=O)O)c2)c2ccccc2O1)c1cccc2ccccc12` (stereo partly drawn) [Example 69, 2-(3-(2-((((R)-1-(Naphthalen-1-yl)ethyl)amino)methyl)-2H-benzo [b][1,4]oxazin-4(3H)-yl)phenyl)acetic acid hydrochloride]: the EC50 lay within 50 to 200 nM.

On to `C[C@@H](NCC1CN(c2cc(F)cc(C(=O)O)c2)c2ccccc2O1)c1cccc2ccccc12` (stereo partly drawn) [Example 72, 3-Fluoro-5-(2-((((R)-1-(naphthalen-1-yl)ethyl)amino)methyl)-2H-benzo [b][1,4]oxazin-4(3H)-yl) benzoic acid hydrochloride], for which the EC50 fell in the range of 50 to 200 nM.

Regarding `Cc1ccc(N2CC(CN[C@H](C)c3cccc4ccccc34)Oc3cc(F)ccc32)cc1C(=O)O` (stereo partly drawn) [Example 84, 5-(7-Fluoro-2-((((R)-1-(naphthalen-1-yl)ethyl)amino)methyl)-2H-benzo[b][1,4]oxazin-4(3H)-yl)-2-methyl benzoic acid hydrochloride], the EC50 lay in the range of 20 to 50 nM.

With `Cc1cc(N2CC(CCN[C@H](C)c3cccc4ccccc34)Oc3ccccc32)ccc1C(=O)O` (some centres unmarked) [Example 134a, 2-Melhyl-4-(2-(2-(((R-1-(naphthalen-1-yl)ethyl)amino)ethyl)-2H-benzo[b] [1,4]oxazin-4(3H)-yl)benzoic acid hydrochloride], the EC50 was 50 to 200 nM.

Consider `C[C@@H](NCCC1CN(c2ccc(C(F)(F)F)c(C(=O)O)c2)c2ccccc2O1)c1cccc2ccccc12` (stereo partly drawn) [Example 135a, 5-(2-(2-(((R)-1-(Naphthalen-1-yl)ethyl)amino)ethyl)-2H-benzo [b][1,4]oxazin-4(3H)-yl)-2-(trifluoromethyl) benzoic acid hydrochloride], for which the EC50 is below 20 nM.

Turning to `CC(C)c1ccc(N2CC(CCN[C@H](C)c3cccc4ccccc34)Oc3ccccc32)cc1C(=O)O` (stereo partly drawn) [Example 137a, 2-Isopropyl-5-(2-(2-(((R)-1-(naphthalen-1-yl)ethyl)amino)ethyl)-2H-benzo[b] [1,4]oxazin-4(3H)-yl) benzoic acid hydrochloride], the EC50 lay in the range of 50 to 200 nM.

With `C[C@@H](NCCC1CN(c2cccc(OCC(=O)O)c2)c2ccccc2O1)c1cccc2ccccc12` (stereo partly drawn) [Example 138a, 2-(3-(2-(2-(((R)-1-(Naphthalen-1-yl)ethyl)amino)ethyl)-2H-benzo[b][1,4]oxazin-4(3H)-yl)phenoxy)aceticacid hydrochloride], the half-maximal effective concentration (EC50) was below 20 nM.

`C[C@@H](NCCC1CN(c2ccc(CCC(=O)O)cc2)c2ccccc2O1)c1cccc2ccccc12` (stereo partly drawn) [Example 139a, 3-(4-(2-(2-(((R)-1-(Naphlhalen-1-yl)ethyl)amino)ethyl)-2H-benzo [b][1,4]oxazin-4(3H)-yl)phenyl)propanoic acid hydrochloride]: the EC50 is below 20 nM.

`COc1ccc(N2CC(CCN[C@H](C)c3cccc4ccccc34)Oc3ccccc32)cc1C(=O)O` (stereo partly drawn) [Example 141a, 2-Methoxy-5-(2-(2-(((R)-1-(naphthalen-1-yl)ethyl)amino)ethyl)-2H-benzo[b] [1,4]oxazin-4(3H)-yl) benzoic acid hydrochloride]: the EC50 is below 20 nM.

In the case of `C[C@@H](NCCC1CN(c2ccc(CC(=O)O)cc2)c2ccccc2O1)c1cccc2ccccc12` (stereo partly drawn) [Example 143a, 2-(4-(2-(2-(((R)-1-(Naphthalen-1-yl)ethyl)amino)ethyl)-2H-benzo[b][1,4]oxazin-4(3H)-yl)phenyl) acetic acid hydrochloride], the EC50 lay within 50 to 200 nM.

Consider `Cc1cc(N2CC(CCN[C@H](C)c3cccc4ccccc34)Oc3ccccc32)ccc1OCC(=O)O` (stereo partly drawn) [Example 144a, 2-(2-Methyl-4-(2-(2-(((R)-1-(naphlhalen-1-yl)ethyl)amino)ethyl)-2H-benzo[b] [1,4]oxazin-4(3H)-yl)phenoxy)aceticacid hydrochloride], for which the concentration giving a half-maximal response (EC50) was below 20 nM.

In the case of `Cc1ccc(N2CC(CCN[C@H](C)c3cccc4ccccc34)Oc3ccccc32)c(C)c1C(=O)O` (stereo partly drawn) [Example 148a, 2,6-Dimethyl-3-(2-(2-(((R)-1-(naphthalen-1-yl)ethyl)amino)ethyl)-2H-benzo[b] [1,4]oxazin-4(3H)-yl) benzoic acid hydrochloride], the concentration giving a half-maximal response (EC50) is below 20 nM.

As for `Cc1ccc(CN2CC(CCN[C@H](C)c3cccc4ccccc34)Oc3ccccc32)cc1C(=O)O` (stereo partly drawn) [Example 177a, 2-Methyl-5-((2-(2-(((R)-1-(naphthalen-1-yl)ethyl)amino)ethyl)-2H-benzo[b][1,4]oxazin-4(3H)-yl)methyl)benzoic acid hydrochloride], the EC50 is below 20 nM.
